Laboratory results as given in patent publication US20240294551A1 (AMGEN INC., priority 2022, published 2024).
Like-named read-outs stand apart in the source and are kept apart here.

Key:
[1] = molecular target: His-tagged KRAS G12D protein (Homo sapiens (Human), UniProt P01116, G12D); test: KRAS G12D TR-FRET Assay; assay type: binding
Procedure: Compounds of interest were prepared in a dose-response titration in DMSO, and 80 nL were added via Labcyte Echo to each well of a 384-well plate (Perkin Elmer 6008280). The His-tagged KRAS G12D protein (Amgen) was diluted to 20 nM in Assay Buffer (20 mM HEPES, pH 7.4, 10 mM MgCl2, 50 mM NaCl, 0.1% BSA, 0.01% Tween-20, 10 μM GDP) and 2 μL was added to the appropriate wells of the 384-well plate. The plate was incubated for 30 minutes at room temperature. Biotinylated KRPep-2d substrate (Amgen) was diluted to 20 nM in Assay Buffer and 2 μL was added to all wells and incubated for 1 hour at room temperature. Detection Reagent (0.4 nM LANCE Eu-W1024 Anti-6×His (Perkin Elmer AD0401), 5 nM streptavidin-d2 (Cisbio 610SADLA)) was prepared in Assay Buffer, then 4 μL was added to the plate and incubated for 1 hour at room temperature. Plates were read using PerkinElmer EnVision (ex: 320 nm, em1: 665 nm, em2: 615 nm) and em1/em2 data was used to generate curve fits using a 4-parameter logistic model to calculate IC50 values.

[2] = molecular target: GDP-bound KRAS protein (aa 1-169), containing both G12D and C118A amino acid substitutions (Homo sapiens (Human), UniProt P01116, C118A/G12D); test: KRAS G12D Coupled Nucleotide Exchange Assay; assay type: biochemical
Sequence of GDP-bound KRAS protein (aa 1-169), containing both G12D and C118A amino acid substitutions (P01116 other isoform, or with tags, fused parts or gaps G12D/C118A): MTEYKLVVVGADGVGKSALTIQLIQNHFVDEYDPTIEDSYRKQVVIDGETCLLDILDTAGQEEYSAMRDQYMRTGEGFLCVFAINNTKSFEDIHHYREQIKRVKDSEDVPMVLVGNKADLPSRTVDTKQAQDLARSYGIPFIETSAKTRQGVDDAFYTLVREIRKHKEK
Procedure: KRAS G12D Coupled Nucleotide Exchange Assay
Following compound pre-incubation, purified SOS protein (aa 564-1049) and GTP (Roche 10106399001) were added to the assay wells and incubated for an additional 30 min. To determine the extent of inhibition of SOS-mediated nucleotide exchange, purified GST-tagged cRAF (aa 1-149), nickel chelate AlphaLISA acceptor beads (PerkinElmer AL108R), and AlphaScreen glutathione donor beads (PerkinElmer 6765302) were added to the assay wells and incubated for 10 minutes. The assay plates were then read on a PerkinElmer EnVision Multilabel Reader, using AlphaScreen® technology, and data were analyzed using a 4-parameter logistic model to calculate IC50 values.

[3] = read-out: KRAS G12D Binding IC50
[4] = read-out: KRAS G12D Coupled Exchange IC50
[5] = TR-FRET, read-out: KRAS G12D Binding
[6] = 2 hours compound pre-incubation, read-out: KRAS G12D Coupled Exchange

Sequence of His-tagged KRAS G12D protein (P01116 other isoform, or with tags, fused parts or gaps G12D): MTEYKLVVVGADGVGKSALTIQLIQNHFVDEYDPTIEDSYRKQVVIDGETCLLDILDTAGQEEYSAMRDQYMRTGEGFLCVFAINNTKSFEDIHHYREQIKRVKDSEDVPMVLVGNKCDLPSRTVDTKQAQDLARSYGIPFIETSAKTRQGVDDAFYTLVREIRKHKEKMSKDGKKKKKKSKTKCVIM

IC50 [1, 3] [nM] | IC50 [2, 4] [nM] | IC50 [1, 5] [nM] | IC50 [2, 6] [nM] | SMILES
71 | 44 | – | – | O=C1OCCCc2c(Cl)cc3[nH]ncc3c2-c2c(F)cc3c(nc(OC[C@@]45CCCN4C[C@H](F)C5)nc3c2F)N2CCOC[C@H](C2)O1 [Example 188, m-(26S)-18-chloro-9,32-difluoro-4-(((2R,7aS)-2-fluorotetrahydro-1H-pyrrolo[1,2-a]pyrrol-7a(5H)-yl)methoxy)-23,25,28-trioxa-1,3,5,14,15-pentaazahexacyclo[24.4.1.1~6,10~.0~2,7~.0~11,19~.0~12,16~]dotriaconta-2,4,6,8,10(32),11,13,16,18-nonaen-24-one]
2250 | 1080 | – | – | Fc1c2ncc3c(nc(OC[C@@]45CCCN4C[C@H](F)C5)nc13)N1CCCC[C@@H](C1)c1cnn(n1)CCCc1c(Cl)cc3[nH]ncc3c1-2 [Example 295, (1S)-10-chloro-33-fluoro-24-(((2R,7aS)-2-fluorotetrahydro-1H-pyrrolo[1,2-a]pyrrol-7a(5H)-yl)methoxy)-4,5,13,14,19,23,25,27,34-nonaazaheptacyclo[25.4.1.1~2,5~.1~18,22~.0~9,17~.0~12,16~.0~21,26~]tetratriaconta-2(34),3,9,11,14,16,18(33),19,21,23,25-undecaene]
2440 | 790 | – | – | CN1CCC[C@H]1COc1nc2c3cnc(c(F)c3n1)-c1c(c(Cl)cc3[nH]ncc13)CCCOC(=O)O[C@@]1(CF)COCCN2C1 [Example 337, (26R)-18-chloro-32-fluoro-26-(fluoromethyl)-4-(((2S)-1-methyl-2-pyrrolidinyl)methoxy)-23,25,28-trioxa-1,3,5,9,14,15-hexaazahexacyclo[24.4.1.1~6,10~.0~2,7~.0~11,19~.0~12,16~]dotriaconta-2,4,6,8,10(32),11,13,16,18-nonaen-24-one]
498 | 153 | – | – | O=C1CCCCc2c(Cl)cc3[nH]ncc3c2-c2ncc3c(nc(OC[C@@]45CCCN4C[C@H](F)C5)nc3c2F)N2C[C@H](O)C[C@@H](C2)N1 (racemic) [Example 276, (17S,19R)-9-chloro-30-fluoro-24-(((2R,7aS)-2-fluorotetrahydro-1H-pyrrolo[1,2-a]pyrrol-7a(5H)-yl)methoxy)-19-hydroxy-5,6,16,21,23,25,29-heptaazahexacyclo[24.3.1.1~17,21~.0~2,10~.0~3,7~.0~22,27~]hentriaconta-1(30),2,4,7,9,22,24,26,28-nonaen-15-one]
1570 | 1110 | – | – | O=C1N[C@H]2CN(C[C@H]3C[C@H]32)c2nc(OC[C@@]34CCCN3C[C@H](F)C4)nc3c(F)c(ncc23)-c2c(c(Cl)cc3[nH]ncc23)CCC[C@H]1F [Example 173, (23R,26R,27R,29S)-18-chloro-23,32-difluoro-4-(((2R,7aS)-2-fluorotetrahydro-1H-pyrrolo[1,2-a]pyrrol-7a(5H)-yl)methoxy)-1,3,5,9,14,15,25-heptaazaheptacyclo[24.4.1.1~6,10~.0~2,7~.0~11,19~.0~12,16~.0~27,29~]dotriaconta-2,4,6,8,10(32),11,13,16,18-nonaen-24-one]
74 | 55 | – | – | N#Cc1cc(Cl)c2c(c1)-c1ncc3c(nc(OC[C@@]45CCCN4C[C@H](F)C5)nc3c1F)N1CCOC[C@H](C1)OC(=O)OCCC2 [Example 216]
1230 | 783 | – | – | O=C1OCC[C@H]2CCc3cc4[nH]ncc4c(c32)-c2ncc3c(nc(OC[C@@]45CCCN4C[C@H](F)C5)nc3c2F)N2CCOC[C@H](C2)O1 [Example 368, (16S,22R)-34-fluoro-8-(((2R,7aS)-2-fluorotetrahydro-1H-pyrrolo[1,2-a]pyrrol-7a(5H)-yl)methoxy)-14,17,19-trioxa-3,7,9,11,28,29-hexaazaheptacyclo[20.9.1.1~2,6~.1~11,16~.0~5,10~.0~25,32~.0~27,31~]tetratriaconta-1(31),2(34),3,5,7,9,25(32),26,29-nonaen-18-one]
240 | 125 | – | – | OC1CCCCc2c(Cl)cc3[nH]ncc3c2-c2ncc3c(nc(OC[C@@]45CCCN4C[C@H](F)C5)nc3c2F)N2CCOCC(C1)C2 (some centres unmarked) [Example 235]
90 | 105 | – | – | O=C1OCCCc2c(Cl)cc3[nH]ncc3c2-c2ncc3c(nc(O[C@@H]4CCOC4)nc3c2F)N2CCOC[C@H](C2)O1 [Example 197, (26S)-18-chloro-32-fluoro-4-((3R)-tetrahydro-3-furanyloxy)-23,25,28-trioxa-1,3,5,9,14,15-hexaazahexacyclo[24.4.1.1~6,10~.0~2,7~.0~11,19~.0~12,16~]dotriaconta-2,4,6,8,10(32),11,13,16,18-nonaen-24-one]
43 | 43 | – | – | Cc1cc2[nH]ncc2c2c1CCCCCC(=O)N[C@]1(C)CCCN(C1)c1nc(OC[C@@]34CCCN3C[C@H](F)C4)nc3c(F)c-2ncc13 [Example 21, (18R)-31-Fluoro-25-(((2R,7aS)-2-fluorotetrahydro-1H-pyrrolo[1,2-a]pyrrol-7a(5H)-yl)methoxy)-9,18-dimethyl-5,6,17,22,24,26,30-heptaazahexacyclo[25.3.1.1˜18,22˜0.0˜2,10˜0.0˜3,7˜0.0˜23,28˜]dotriaconta-1(31),2,4,7,9,23,25,27,29-nonaen-16-one]
– | – | 3730 | 1810 | Fc1c2ncc3c(nc(OC[C@@]45CCCN4C[C@H](F)C5)nc13)N1CCC[C@@H](C1)c1cnc(o1)CCCc1c(Cl)cc3[nH]ncc3c1-2 [Example 386, (18S)-9-chloro-31-fluoro-25-(((2R,7aS)-2-fluorotetrahydro-1H-pyrrolo[1,2-a]pyrrol-7a(5H)-yl)methoxy)-33-oxa-5,6,15,22,24,26,30-heptaazaheptacyclo[25.3.1.1~14,17~.1~18,22~.0~2,10~.0~3,7~.0~23,28~]tritriaconta-1(31),2,4,7,9,14,16,23,25,27,29-undecaene]
220 | 177 | – | – | Cc1cc2[nH]ncc2c2c1CCCCCC(=O)O[C@@H]1CCCN(C1)c1nc(OC[C@@]34CCCN3C[C@H](F)C4)nc3c(F)c-2ncc13 [Example 34, (18R)-31-fluoro-25-(((2R,7aS)-2-fluorotetrahydro-1H-pyrrolo[1,2-a]pyrrol-7a(5H)-yl)methoxy)-9-methyl-17-oxa-5,6,22,24,26,30-hexaazahexacyclo[25.3.1.1~18,22~.0~2,10~.0~3,7~.0~23,28~]dotriaconta-1(31),2,4,7,9,23,25,27,29-nonaen-16-one]
55 | 47 | – | – | Cc1cc2[nH]ncc2c2c1CCCCC(=O)OC1CN(CC3(CC3)C1)c1nc(OC[C@@]34CCCN3C[C@H](F)C4)nc3c(F)c-2ncc13 (mixture of isomers) [Example 80, (17′R)-30′-fluoro-24′-(((2R,7aS)-2-fluorotetrahydro-1H-pyrrolo[1,2-a]pyrrol-7a(5H)-yl)methoxy)-9′-methyl-16′-oxa-5′,6′,21′,23′,25′,29′-hexaazaspiro[cyclopropane-1,19′-hexacyclo[24.3.1.1~17,21~.0~2,10~.0~3,7~.0~22,27~]hentriacontane]-1′(30′),2′,4′,7′,9′,22′,24′,26′,28′-nonaen-15′-one]
333 | 71 | – | – | CN1C(=O)COCC[C@@H]2CCc3cc4[nH]ncc4c(c32)-c2ncc3c(nc(OC[C@@]45CCCN4C[C@H](F)C5)nc3c2F)N2CCC[C@@H]1C2 [Example 279, (15R,22S)-34-fluoro-8-(((2R,7aS)-2-fluorotetrahydro-1H-pyrrolo[1,2-a]pyrrol-7a(5H)-yl)methoxy)-16-methyl-19-oxa-3,7,9,11,16,28,29-heptaazaheptacyclo[20.9.1.1~2,6~.1~11,15~.0~5,10~.0~25,32~.0~27,31~]tetratriaconta-1(31),2(34),3,5,7,9,25(32),26,29-nonaen-17-one]
– | – | 1170 | 198 | OC1c2ncc(o2)CCc2c(Cl)cc3[nH]ncc3c2-c2ncc3c(nc(OC[C@@]45CCCN4C[C@H](F)C5)nc3c2F)N2CCO[C@@H]1C2 (stereo in doubt) [Example 395, (17R,18R)-9-chloro-31-fluoro-25-(((2R,7aS)-2-fluorotetrahydro-1H-pyrrolo[1,2-a]pyrrol-7a(5H)-yl)methoxy)-19,33-dioxa-5,6,15,22,24,26,30-heptaazaheptacyclo[25.3.1.1~13,16~.1~18,22~.0~2,10~.0~3,7~.0~23,28~]tritriaconta-1(31),2,4,7,9,13,15,23,25,27,29-undecaen-17-ol]
616 | 339 | – | – | O=C1CCCCc2c(Cl)cc3[nH]ncc3c2-c2ncc3c(nc(OC[C@@]45CCCN4C[C@H](F)C5)nc3c2F)N2C[C@H]3CN1[C@H]3C2 [Example 169, (18S,19R)-9-chloro-30-fluoro-24-(((2R,7aS)-2-fluorotetrahydro-1H-pyrrolo[1,2-a]pyrrol-7a(5H)-yl)methoxy)-5,6,16,21,23,25,29-heptaazaheptacyclo[24.3.1.1~18,21~.0~2,10~.0~3,7~.0~16,19~.0~22,27~]hentriaconta-1(30),2,4,7,9,22,24,26,28-nonaen-15-one]
